# Test results as given in PMC12005787, “Synthetic Lethality of SHP2 and XIAP Suppresses Proliferation and Metastasis in KRAS‐mutant Nonsmall Cell Lung Cancer” (Advanced Science, 2025).
# Experiments:
# Assay type in all cases: cell-based, human
# Conditions in all cases: 24 h
# [1] = test system: NCI‐H2122 and A549 cells; test: Cell scratch and cell migration assays
# Procedure: supplies are listed in Supplementary Table S5. The relevant reagents for protein extraction from Escherichia coli are listed in Supplementary Table S6. Inhibitory effects of embelin on KRAS-mutant and wild-type cells are listed in Supplementary Table S7.
# For the adherent cell viability assay, cells in the logarithmic growth phase were seeded in 96-well culture plates at a density of 5×103 well-1 and incubated overnight. Diluted compounds or DMSO were added, or specific treatments were incubated at 37 °C and 5% CO2 for 24 h or 48 h. Cell viability was determined using CCK-8 or CellLightTM Cell Viability Assay Kit, according to the manufacturer's protocol. The luminescence signals of the treated samples were normalized to those of the DMSO group.
# For spherical cell viability assays, cells in the logarithmic growth phase were inoculated ata density of 4×10^3 well-1 into 96-well spherical cell microplates and incubated at 37 °C, 5% CO2 for 24 h or 48 h. Cell viability was measured using the CellTiter-Glo® Luminescent Cell Viability 3D Cell Viability Assay Kit, according to the manufacturer’s protocol. […]
# Finally, the staining results were recorded using an inverted microscope. […]
# NCI-H2122 and A549 cells were seeded in six-well plates. […] Finally, the scratch was photographed using an inverted microscope and the wound healing status was recorded. […]
# [2] = test system: NCI‐H2122 cells; test: Apoptosis detection (Annexin-V-FITC/PI)
# Procedure: (§1) NCI-H2122 cells treated with the given disposal were digested with trypsin, resuspended
# (§2) in cold PBS, and centrifuged at room temperature (1000×g for 5 min) to discard the
# supernatant. Approximately 100,000 cells were collected and 195 μL of Annexin V-FITC
# conjugate was added to gently resuspend the cells and then 5 μL of Annexin V-FITC and 10
# μL of propidium iodide (PI) staining solution were added respectively. They were then
# incubated at 37 °C for 10-20 min in the dark, placed on ice, and passed through a flow
# cytometer (Becton, Dickinson, Calibur, USA) for online detection. […]
# (1 picture or pasted object on this page, not shown here)
# [3] = test system: NCI‐H2122 cells; test: ROS release assay
# Procedure: incubated with a horseradish peroxidase (HRP)-conjugated secondary antibody at room
# temperature for 2 h and then incubated with enhanced chemiluminescence (ECL) solutions for
# 15 s at room temperature. A fully automated gel imaging system (General Electric Company,
# USA) was used for the exposure imaging.
# NCI-H2122 cells were inoculated into 96-well plates specialized for high-content cell
# imaging, treated with various drugs, fixed with 4% neutral formaldehyde, and sealed with 5%
# BSA after permeabilization with 0.05% Triton X-100. Subsequently, the cells were incubated
# with the given primary antibody overnight at 4 °C and then with corresponding fluorescent
# secondary antibody in dark at room temperature for 1 h. […] (DAPI)
# was applied to nuclear staining. Fluorescence images were captured using a high-content
# analyzer (Thermo Scientific, USA).
# as §1, §2
# supernatant. […]
# RNaseA) was incubated in dark at 37℃ for 30 min. Red fluorescence and light scattering
# were detected by flow cytometry at 488 nm. Cell cycle results were analyzed and visualized […]
# intracellular ROS levels were detected by flow cytometry (λa = 488 nm, λe = 525 nm). […]
# sealed with a DAPI-containing anti-fluorescence quenching sealer for 30 min at room […]
# [4] = test system: MEK and ERK phosphorylation in NCI‐H2122 and A549 cells; test: MEK and ERK phosphorylation (western blotting)
SMILES,effect on cell mobility / migration [1],effect on apoptosis [2],effect on ROS release [3],effect on MEK and ERK phosphorylation [4]
CCCCCCCCCCCC1=C(O)C(=O)C=C(O)C1=O [Embelin],potently inhibit the migration capabilities,increased the proportion of early and late apoptotic cells,promoted ROS release,inhibited MEK and ERK phosphorylation
CC1(N)CCN(c2cnc(-c3cccc(Cl)c3Cl)c(N)n2)CC1 [SHP099],poor effect on cell mobility,promoted apoptosis,promoted ROS release,did not affect MEK phosphorylation in A549 cells
